The nature of the data set: Test of complex solubility in nonpolar solvents (n-hexane). The format is physicochemical. The conditions noted are these: 5 mg catalyst, n-hexane added in portions, room temperature, magnetic stirring. How it is done: In a round-bottom flask equipped with a stirring bar, the catalyst (Ru-a, Ru-b, Ru-c, Ru-d, Ru-h, Ru-15, Ru-16 and Hov-II) was placed, in the amount of 5 mg of each. n-hexane was added to each of the flasks in portions, at room temperature, and the mixture was stirred using a magnetic stirrer. The Ru-a dissolved in 6 mL, and the Ru-h complex in 4 mL of the solvent. In the case of the Ru-15 complex, almost complete solubility was observed after adding 20 mL of n-hexane.

Where only a bound is given, the exact number is not on record here.

Take `Cc1cc(C)c(N2CCN(c3c(C)cc(C)cc3C)[C]2=[Ru]([Cl])([Cl])=[CH]c2ccccc2OC(C)C)c(C)c1` [Hov-II]: the “Volume of n-hexane in which 5 mg of the complex dissolved” value was over 20 mL.

The values above are taken from patent US20260258066A1, “NOVEL RUTHENIUM COMPLEXES, METHOD OF THEIR SYNTHESIS, INTERMEDIATE COMPOUNDS USED IN THIS METHOD, METHOD OF THEIR SYNTHESIS AND THE USE OF NOVEL RUTHENIUM COMPLEXES IN OLEFIN METATHESIS REACTIONS” (UNIWERSYTET WARSZAWSKI, priority 2022, published 2026).
